Assay results as given in publication PMC10950897, “VCF1 is a p97/VCP cofactor promoting recognition of ubiquitylated p97-UFD1-NPL4 substrates” (Nature Communications, 2024).

Assays:
p97 (His6-p97 Y143A) = assay: SPR: binding to immobilized His6-p97 Y143A mutant; set-up: species or system human; conditions: full-length VCF1 up to 100 nM
Experimental: Surface Plasmon Resonance (SPR)
All SPR experiments were performed at 25 °C on a Biacore T200 instrument equipped with CM5 or CM7 sensor chips (Cytiva, Uppsala, Sweden). SPR running buffers and amine-coupling reagents (N-ethyl-N’-(3-dimethlyaminoproply)carbodiimide (EDC), N-hydroxysuccinimide (NHS), and ethanolamine HCl) were purchased from Cytiva. 1x PBS-P (11.9 mM NaH2PO4-Na2HPO4, pH 7.4; 137 mM NaCl; 2.7 mM KCl; 0.005% surfactant P20) supplemented with 0.5 mM TCEP was used as running buffer for the immobilization and the binding experiments with Strep-HA-VCF1 full-length proteins. For the VCF1 C-terminal peptide binding studies, 2% DMSO was additionally included in the running buffer. Eight solvent correction samples ranging from 1.5% DMSO to 2.8% DMSO prepared in either PBS-P, 0.5 mM TCEP or Tris-based buffer were used to correct buffer/DMSO mismatches. […] The dissociation rate of the p97-VCF1 complexes was monitored for 400 s. […] Binding experiments were measured in triplicates. […] The equilibrium dissociation contants, Kd, were determined by plotting the equilibrium responses levels (Req) against […] and fitting to a steady-state model.

[1] = tested on: p97-UFD1-NPL4 binding to K48-Ub2-7; assay: FLAG IP: p97-UFD1-NPL4 binding to K48-linked ubiquitin chains, purified proteins; format: biochemical, human; conditions: purified proteins
Experimental: (§1) All in vitro binding experiments were performed in EBC or RIPA buffer as indicated. Recombinant Biotin-tagged K48-linked poly-ubiquitin chains (2−7) and K48-linked poly-ubiquitin chains (2−16) were purchased from R&D Systems and Enzo Life Science, respectively. Recombinant proteins were incubated with Strep-Tactin Sepharose (IBA), Glutathione agarose (Gold Biotechnology) or […] Fab-trap agarose (ChromoTek) overnight on an end-over-end rotator at 4 °C, washed six times with EBC or RIPA buffer, and resuspended in 2×Laemmli sample buffer. For p97, VCF1 or p47 pulldowns, antibodies (0.5 µg/sample) were coupled to agarose beads, incubated with recombinant proteins or cell lysates and washed with the indicated buffer. To assess p97-UFD1-NPL4 binding to ubiquitylated proteins in total cell extracts, U2OS cells were lysed in EBC buffer supplemented with protease and phosphatase inhibitors, sonicated and incubated on ice for 10 min. Lysates were cleared by centrifugation for 10 min at 16,100 × g. Cell lysate (40 µg) was added to recombinant proteins in EBC buffer, incubated overnight on the rotator with […] Fab-trap agarose (ChromoTek), and beads were washed six times.

p97-UFD1-NPL4 = assay: Analytical gel filtration; format: binding, human; conditions: equimolar p97, UFD1-NPL4, VCF1 (5 µM), pH 7.4
Experimental: For analytical gel filtration, p97 alone (5 µM hexamer), or p97 (5 µM hexamer) with UFD1-NPL4 (5 µM) and VCF1 (5 µM) were mixed in a total volume of 25 µl in SEC buffer (50 mM HEPES, pH 7.4; 150 mM NaCl). Samples were separated by size exclusion chromatography on a Superose 6 3.2/300 column (Cytiva) equilibrated in SEC buffer using an ÄKTA Purifier 10 FPLC system (GE Healthcare). After the column dead volume (0.35 column volumes), fractions were collected (120 µl) and analyzed by immunoblotting.

[2] = tested on: p97 with UFD1-NPL4, p47 or FAF1; assay: In vitro binding with p97 cofactors (GST, StrepTactin, p47, p97 or FLAG pulldown); set-up: species or system human
Experimental: as §1

Substance: VCF1: human FAM104A isoform 1, 186 amino acids (UniProt Q969W3); recombinant Strep-HA-tagged
- binding to p97 Y143A (in words) (p97 (His6-p97 Y143A)): did not show detectable binding affinity
- binding to p97 Y143A (in words) (p97 (His6-p97 Y143A); listed as Strep-HA-VCF1 WT): no dose-dependent response was observed
- effect on UFD1-NPL4 association with p97 [1]: no discernible impact on UFD1-NPL4 association with p97
- effect on p97-UFD1-NPL4 binding to K48 ubiquitin chains ([1]; FLAG IP): strong stimulatory impact on p97-UFD1-NPL4 binding to K48-linked poly-ubiquitin chains in vitro
- comigration in size-exclusion chromatography (p97-UFD1-NPL4): comigration of the p97-VCF1-UFD1-NPL4 complex
- co-purification of UFD1-NPL4 with immobilized VCF1 ([2]; StrepTactin pulldown): dependent on the presence of p97 and the p97-binding proficiency of VCF1
- VCF1 in p47 IP ([2]; VCF1:p47 ratio approx. 1:3): little if any VCF1 is detectable in the p47 IP
- VCF1 in p47 IP ([2]; VCF1:p47 ratio approx. 2:1): VCF1 now becomes detectable in p47 IPs
- competition with p47 for p97 ([2]; VCF1:p47 ratio approx. 8:1): more efficiently outcompetes p47 binding to p97
- displacement of p97-bound cofactors ([2]; high/increasing concentrations): displaced p47 and UFD1-NPL4 from p97 in vitro
- simultaneous binding with UFD1-NPL4, p47 or FAF1 to p97 ([2]; moderate concentrations of VCF1): clearly permissive for the simultaneous binding
- p97-independent enrichment in UFD1 pulldowns ([2]; purified Strep-HA-VCF1, no p97): modest p97-independent enrichment
- direct interaction with UFD1-NPL4 ([2]; purified proteins, no p97): did not directly interact with UFD1-NPL4
